In PMC6789111, “Crossing the blood-brain-barrier with nanoligand drug carriers self-assembled from a phage display peptide” (Nature Communications, 2019):
Where two headings read alike, the source gives them in different places. Peptide text beside a SMILES is read from it. * marks the point of attachment. 5FAM = O=C1OC2(c3ccc(O)cc3Oc3cc(O)ccc32)c2ccc(C(=O)*)cc21

Tests used:
hCMEC/D3 cell monolayer = assay: Transwell in vitro BBB model; format: cell-based, human
Procedure: For the construction of the in vitro BBB model, hCMEC/D3 cells were seeded on rat tail collagen-coated polycarbonate membranes (Transwell, No. 3401 Costar; Corning, Wiesbaden, Germany; 0.4 μm pore size; 1.13 cm^2 growth area) with a density of 100,000 cells cm^−2. Every three days the cell medium was change. In general after 7 days growth, the cells reached confluence. The transendothelial electrical resistance (TEER) and cell layer capacitance (CCL), which reflects the membrane surface area of the hCMEC/D3 cell monolayer, were measured using CellZscope system (NanoAnalytics, Münster, Germany). Cells with CCL values in the range of 0.5–5.0 μF cm^−2 indicate cell confluence and validate TEER values were selected for the transfer experiments. NLCs at different concentrations were introduced in to the apical side of the BBB model. The TEER values were measured during the incubation. After 24 h of incubation, the media from basal and apical sides were sampled and analysed for fluorescent measurement. CD31 and paracellular adherens (β-catenin) junctions were assessed by immunofluorescence labeling directly on the cell monolayer attached to the transwell membrane. Briefly, cells were fixed by 4% v/v paraformaldehyde for 10 min, rinsed and then permeabilised with 0.5% (v/v) Triton X-100 for 10 min. After rinsing samples were blocked by 5% w/v BSA for 1 h, followed by incubation with primary antibodies (rabbit polyclonal to CD31, rabbit polyclonal to anti-β-catenin) in 1% w/v BSA overnight at 4 °C. […] After rinsing, the red fluorescence from tight junction proteins was observed by a Leica AF6000LX microscope equipped with a 63 × objective using ×1.6 magnifications. […]
formation of multiple cell-layers was sometime observed from day 7 onward. […] TEER values and its corresponding capacitance were recorded after the introduction of peptide for 24 h. (d) & (e) Staining and quantification of endothelial cells (CD31) and adheren β-catenin markers confirming the presence of a functional tight junction before and after NLC ( 5 µM) challenge. […]

[1] = Blood clearance after intravenous injection; format: in vivo, ICR mice; settings: Cy5.5 peptide i.v., Ave
Procedure: (§1) The final concentration of the peptide conjugate was 10 µM and that of siRNA was 48 nM based on blood volume calculation equivalent to 6% of the body weight. At different time points blood samples were collected via retro-orbital blood collection. For whole animal imaging system mice were anaesthetised with isoflurane and in vivo fluorescence images were taken (IVIS 200 Spectrum, USA), at different time points. At 4 h post administration, mice were sacrificed, and the liver, lungs, kidneys, spleen, pancreas and brain were collected and stored in liquid nitrogen. The organs were homogenised (FastPrep-24™ 5G Instrument, MP Biomedicals, USA) and the levels of peptide and siRNA were measured in a fluorescence spectrometer (Fluotime 300, Picoquant, Berlin, Germany) using a standard curve.

[2] = Brain level after intravenous injection; format: in vivo, ICR mice; settings: for Brain level (% of injected dose): Cy5.5 peptide i.v., Ave
Procedure: as §1, with “At 4 h post administration, mice were sacrificed, and the liver, lungs, kidneys, spleen, pancreas and brain were collected and stored in liquid nitrogen.” left out

hCMEC/D3 cells = assay: Uptake with internalisation inhibitors; settings: 37 °C
Procedure: The medium was then removed and replaced with a fresh medium containing NLCs and the corresponding inhibitor. After 8 h of incubation at 37 °C, cells were washed three times with cell medium and analysed by FACS. Cell viability at the end of each experiment was >90% as determined by Trypan Blue exclusion test. The following inhibitors were used: 2-deoxy-D-glucose (1 mM)/sodium azide (1 mM) as energy-dependent inhibitors, worthmanin (10 μM) as macropinocytosis inhibitor, chloropromazine (30 μM) as clathrin-dependent endocytosis inhibitor, N-ethylmaleimide (5 μM) as caveolae-dependent endocytosis and transcytosis inhibitor and indomethacin (200 μM) as caveolae-dependent endocytosis inhibitor.

[3] = Blood count after intravenous injection; format: in vivo, ICR mice; settings: mouse, in vivo, iv
Description: Supplementary Table 2. Blood count following intravenous injection of FAM-CGY NLCs in free form and complexed with siRNA
Samples WBC RBC HGB HCT MCV MCH MCHC PLT
WBC: white blood cell; RBC: red blood cell count; HGB: haemoglobin; HCT: haematocrit; MCV: mean corpuscular volume; MCH: mean corpuscular haemoglobin; MCHC: mean corpuscular
significance (*p < 0.05). The results are mean ± s.d. (n = 3 animals per group). The experiment was repeated twice with identical results. The siRNA represent BACE-1-specific siRNA. The
final concentration of the peptide conjugate was 10 µM and that of siRNA was 48 nM, based on blood volume calculation equivalent to 6% of the body weight. LPS = lipopolysaccharide.

BACE1 = assay: In vivo BACE1 silencing, Western blot; parameters: species or system ICR mice; settings: for BACE1 expression level: 72 nM siRNA
Procedure: For in vivo BACE1 silencing, 20 ICR mice were randomly divided into five groups (4 mice in each group) and administrated intravenously with either 72 nM siControl/FAM-CGY or BACE1 siRNA (final concentration, 72 nM) or 72 nM siControl/FAM-CGY scramble peptide1 or 48 nM BACE1 siRNA/FAM-CGY or 72 nM BACE1 siRNA/FAM-CGY, respectively. The final concentration of peptide was 10 μM. […] The frozen brain tissues (80–90 mg) were homogenized in RIPA lysis buffer (Beyotime, China) and centrifuged at 18,000 × g, 4 °C for 15 min. Protein concentration of the supernatant was determined using the BCA Protein Assay Kit. Equal amounts of protein from each sample were loaded on SDS-PAGE gels (4–15%) for the determination with level of the target protein determined by Western blotting using the anti-BACE1 antibody (1:1000 dilution) and detected with HRP-Goat-anti-rabbit) IgG (H + L) secondary antibody (1:3000).

Blood level (% of injected dose) ([1]; 0.25 h)	Blood level (% of injected dose) ([1]; 0.50 h)	Blood level (% of injected dose) ([1]; 1.00 h)	Blood level (% of injected dose) ([1]; 4.00 h)	Blood level (% of injected dose) ([1]; 12.00 h)	Blood level (% of injected dose) ([1]; 24.00 h)	Brain level (% of injected dose) ([2]; 0.25 h)	Brain level (% of injected dose) ([2]; 0.50 h)	Brain level (% of injected dose) ([2]; 1.00 h)	Brain level (% of injected dose) ([2]; 4.00 h)	Brain level (% of injected dose) ([2]; 12.00 h)	Brain level (% of injected dose) ([2]; 24.00 h)	Compound	further results
–	–	–	–	–	–	–	–	–	–	–	–	O=C(O)c1ccc2c(c1)C(=O)OC21c2ccc(O)cc2Oc2cc(O)ccc21 [5-FAM, 5-carboxy-fluorescein, reference compound]	transport across the hCMEC/D3 monolayer (hCMEC/D3 cell monolayer): neither the fluorophor 5-FAM nor the scrambled peptide showed notable transport
–	–	–	–	–	–	–	–	–	–	–	–	CC[C@H](C)[C@H](NC(=O)[C@H](CC(N)=O)NC(=O)[C@H](Cc1c[nH]cn1)NC(=O)[C@@H](NC(=O)[C@@H]1CCCN1C(=O)[C@H](CCCNC(=N)N)NC(=O)[C@H](Cc1ccc(O)cc1)NC(=O)CNC(=O)[C@H](CS)NC(=O)c1ccc2c(c1)C(=O)OC21c2ccc(O)cc2Oc2cc(O)ccc21)C(C)C)C(=O)NCC(=O)N[C@@H](Cc1c[nH]cn1)C(=O)N[C@@H](Cc1c[nH]c2ccccc12)C(=O)N[C@@H](CCCNC(=N)N)C(=O)N[C@@H](C)C(=O)N1CCC[C@H]1C(=O)NCC(=O)O [FAM-CGY scrambled 1] (5FAM-CGYRPVHNIGHWRAPG-OH)	transport across the hCMEC/D3 monolayer (hCMEC/D3 cell monolayer; apical to basal, 24 h, fluorescence): neither the fluorophor 5-FAM nor the scrambled peptide showed notable transport
65.67 % of injected dose	27.80 % of injected dose	11.82 % of injected dose	6.91 % of injected dose	3.51 % of injected dose	1.61 % of injected dose	0.74 % of injected dose	1.20 % of injected dose	1.71 % of injected dose	1.92 % of injected dose	1.01 % of injected dose	0.39 % of injected dose	Cy5.5- CGYRPVHNIGHWRAPG [Cy5.5-CGY scrambled 1]	brain accumulation ([2]; i.v., mice): poorly accumulates in the brain
77.38 % of injected dose	31.74 % of injected dose	14.16 % of injected dose	12.22 % of injected dose	6.13 % of injected dose	1.31 % of injected dose	2.16 % of injected dose	3.71 % of injected dose	5.40 % of injected dose	5.73 % of injected dose	3.72 % of injected dose	1.71 % of injected dose	Cy5.5-CGYRPVHNIRGHWAPG	peak brain level ([2]; 4 h after i.v., corrected for the blood content): 5.7 % of the injected dose
–	–	–	–	–	–	–	–	–	–	–	–	Transferrin: Texas Red-labelled transferrin, TfR substrate, positive control [reference compound]	Mean flouresence (%), uptake vs Control (no inhibitor) (hCMEC/D3 cells; CPZ (chloropromazine 30 μM), 8 h, replicate 1): 55.06%; Mean flouresence (%), uptake vs Control (no inhibitor) (hCMEC/D3 cells; CPZ (chloropromazine 30 μM), 8 h, replicate 2): 58.26%; Mean flouresence (%), uptake vs Control (no inhibitor) (hCMEC/D3 cells; CPZ (chloropromazine 30 μM), 8 h, replicate 3): 48.74%; Mean flouresence (%), uptake vs Control (no inhibitor) (hCMEC/D3 cells; DOG+NaN3 (1 mM/1 mM), 8 h, replicate 2): 38.57%; Mean flouresence (%), uptake vs Control (no inhibitor) (hCMEC/D3 cells; DOG+NaN3 (1 mM/1 mM), 8 h, replicate 3): 34.62%; Mean flouresence (%), uptake vs Control (no inhibitor) (hCMEC/D3 cells; DOG+NaN3 (2-deoxy-D-glucose 1 mM/sodium azide 1 mM), 8 h, replicate 1): 42.26%; Mean flouresence (%), uptake vs Control (no inhibitor) (hCMEC/D3 cells; IMC (indomethacin 200 μM), 1 h pre-treatment + 8 h, FACS, FAM-CGY NLC 5 µM or Texas Red-transferrin 5 µg per well, replicate 1): 102.05%; Mean flouresence (%), uptake vs Control (no inhibitor) (hCMEC/D3 cells; IMC (indomethacin 200 μM), 8 h, replicate 2): 90.27%; Mean flouresence (%), uptake vs Control (no inhibitor) (hCMEC/D3 cells; NEM (N-ethylmaleimide 5 μM), 8 h, replicate 1): 86.23%; Mean flouresence (%), uptake vs Control (no inhibitor) (hCMEC/D3 cells; NEM (N-ethylmaleimide 5 μM), 8 h, replicate 2): 95.58%; Mean flouresence (%), uptake vs Control (no inhibitor) (hCMEC/D3 cells; NEM (N-ethylmaleimide 5 μM), 8 h, replicate 3): 86.57%; Mean flouresence (%), uptake vs Control (no inhibitor) (hCMEC/D3 cells; WOR (worthmanin 10 μM), 8 h, replicate 1): 112.26%; Mean flouresence (%), uptake vs Control (no inhibitor) (hCMEC/D3 cells; WOR (worthmanin 10 μM), 8 h, replicate 2): 98.26%; Mean flouresence (%), uptake vs Control (no inhibitor) (hCMEC/D3 cells; WOR (worthmanin 10 μM), 8 h, replicate 3): 108.61%
–	–	–	–	–	–	–	–	–	–	–	–	siBACE1: sense 5′-GCUUUGUGGAGAUGGUGGATT-3′, antisense 5′-UCCACCAUCUCCACAAAGCTT-3′; siRNA of Supplementary Table 2 (chemistry not given here)	WBC [3]: 4.54±0.30 (×109)L-1; BACE1 expression level (BACE1; 48 h after i.v., siControl = 100.00, Ave.): 101.87; BACE1 expression level (BACE1; 48 h after i.v., siControl = 100.00, experiment 2): 94.53; BACE1 expression level (BACE1; 48 h after i.v., siControl = 100.00, experiment 3): 102.52; BACE1 expression level (BACE1; peptide 10 μM where present, single i.v., 48 h, FAM-CGY+72 nM siControl = 100.00, experiment 1): 108.56; pharmacological activity in hippocampus (BACE1; i.v. BACE1 siRNA in free form or with FAM-SP1): no pharmacological activity
